Here are results for 14 sequences from patent US10524472B2, “Elicitor peptides having disrupted hypersensitive response box and use thereof” (Plant Health Care, Inc., priority 2014, dated 2020).

Marks after values point to notes of the source that are not given here.

Test [1] deals with tobacco plants (leaf tissue discs). Put plainly: Peroxide response, ferric-xylenol orange assay on tobacco leaf discs. In kind it is cell-based. As to conditions: 0.5 ug/ml peptide, one hour, absorbance at 595 nm vs blank. Here is the method: (§1) The ferric-xylenol orange complex assay for hydrogen peroxide (Gay et al., Analytical Biochemistry 273:149-55 (1999), which is hereby incorporated by reference in its entirety) was used to determine peroxide production by plant leaf tissue. Briefly, reagent A was prepared by mixing 10 mg of ferrous ammonium sulfate with 133 uL of sulfuric acid in a total volume of 1 mL with water. Reagent B was prepared by mixing 2 g of sorbitol with 9.34 mg of xylenol orange in 80 ml of water. 1M hydrochloric acid was slowly added until the solution turned yellow. The solution was then diluted with water to a total volume of 100 mL, and stored in a dark bottle at 4° C.
(§2) Leaves from either tobacco plants (plants grown to 6 true leaves) or soy plants (plants grown to 6 true leaves) were used for the assay. The leaf was first removed from the plant and placed on a paper towel. 0.5 cm leaf tissue circles were then removed from the leaf using a leather punch tool. These discs were then placed into the wells of a 96-well plate. […] of water was added to each disc. The plate was covered with parafilm and rested for 12 hours in the dark. The excess water was then removed and the wells washed with an additional 250 uL of water. The washes were then removed from the wells and replaced with 105 uL of a 0.5 ug/ml solution of peptide in water or water blank, generally in quadruplicate. Where peptide solubility was a problem, pH buffer was added to both the blank and peptide samples. Leaf discs were incubated with the peptides for one hour under fluorescent lighting. 50 ul of the solution from each leaf sample was removed to a new well for chemical analysis.
(§3) Just prior to analysis, reagents A and B were freshly mixed in a 1:100 ratio to produce the assay reagent. 200 ul of this mixture was added to each well containing 50 ul of leaf-treated solution. The plate was incubated in the dark for 20 minutes and the absorbance at 595 nm was detected. Results were analyzed using a two-tailed Student's T-test. The results were divided into several response classes. XR++ indicated a positive response with absorbance >0.05 units above the negative control and a Student's T-test p<0.05. XR+ indicated an absorbance <0.05 units above the blank and a Student's T-test p<0.05. XR weak indicated a response >0.02 units above the negative control with a p-value that was not significant. XR− indicated an absorbance within 0.02 units of the negative control. It should be noted that there can be significant biological variability in the peroxide response due to plant age, location of the disc within the leaf, and other factors. As a result, p-values from the T-test are a guide and not an absolute inclusion criterion.

Test [2] deals with tobacco mosaic virus (TMV). Put plainly: Induction of resistance to tobacco mosaic virus in tobacco. As to conditions: for Effectiveness Covered (%) (decline in TMV lesions vs UTC, systemic response) / Effectiveness Uncovered (%) (decline in TMV lesions vs UTC, local response): TMV 3 days post-treatment, scored 3 days after inoculation. It counts as in vivo.
Test [3] concerns soy plants (leaf tissue discs). Put plainly: Peroxide response, ferric-xylenol orange assay on soy leaf discs. As to conditions: 0.5 ug/ml peptide, one hour, absorbance at 595 nm vs blank. It counts as cell-based. Here is the method:
as §1, §2, §3

The test system of another test is soybean seeds. Put plainly: Root & shoot growth analysis after seed soak, soy. In kind it is in vivo. Particulars: for Root (root growth index, percentage increase over untreated control) / Shoot (shoot length, percentage increase over untreated control): soy, 12-14 days. Here is the method:
(§4) Peptides were tested for biological effects on the allocation of growth resources to the shoot (above ground) and root (below ground). Peptides were dissolved at 0.2, 2, or 5 μg/ml in a total volume of 100 ml deionized water. Corn or soybean seeds were then soaked for one hour in the peptide solution. Untreated control (UTC) plants were soaked in deionized water. Clear plastic 300 ml beverage cups (Solo®, Dart Container Corporation) were prepared for planting by marking the bottom with a cross, dividing the bottom into four equal quadrants. The cups were then filled with Sunshine Mix #1 soil (SunGro Horticulture) sieved to ¼″. 100 ml of water was added to the soil. Treated seeds were then planted by pressing the seed lightly into the top of the soil. The seeds were then covered with an additional 50 ml of loose soil. Seeds were allowed to germinate and grow for 12-14 days.
The length of the shoot was measured as the distance from the soil to the lightly stretched tip of the highest leaf for each plant. […] Stunting was defined as lacking a fully expanded true leaf at time of data collection or having an expanded true leaf judged by eye to be <½ the average leaf area of the treatment group. Generally, 30 seeds were planted per treatment group and 15-25 plants were used for data collection.
Root growth was estimated by counting the number of times that a primary root crosses the quadrant marks on the bottom of the cup. These were often observed along the bottom circumference of the cup, although some were visible along the side of the container and were counted as if crossing a vertical extension of the quadrant line. This number was divided by 4 to produce a root growth index.
Each number indicates the percentage increase over the untreated control values.

Another test relates to Soy plants. The test can be described thus: Growth tests after foliar spray, soy. It counts as in vivo. As to conditions: for growth, dry biomass and fresh mass (text summary of Table 21): foliar spray; for Dry biomass increase (%) / Growth increase (%): soy, 14 days. Here is the method:
(§5) Soy seeds (or corn seeds, as indicated) were planted in flats with 2 seeds per cell within the flat at a greenhouse facility. The seeds were allowed to germinate and the smaller plant is culled, leaving one plant per cell. Once the first true leaves are fully expanded and the second leaves are beginning to expand, the plants were initially measured for height. This was performed by stretching the highest leaf upward and measuring the distance to the soil. Peptides were dissolved in water at the indicated concentrations (Table 21 below). The plants were then treated with a foliar spray using widely available spray bottles until liquid was dripping from the leaves. Six flats of 14 plants each were treated per condition (peptide or control). Designated untreated control plants were sprayed with water. The plants were allowed to grow for 14 days. The height of the plants was again measured and compared to the original height to quantify growth. Finally, the plants were harvested by removing the shoots (all above-ground material). For some experiments, this was weighed upon harvesting to determine the fresh mass (including water weight). The shoots were then dried at 70° C. for 72 hours, and again weighed to determine dry biomass. Although this method uses a similar measure (growth) as in Example 3 above, the treatment method is different (seed soak vs. foliar spray). As a result, the experimental outcomes may diverge.

The subject of another test is corn plants. Put plainly: Growth tests after foliar spray, corn. In kind it is in vivo. The procedure:
as §5

A further test has as its system Corn seeds. The test can be described thus: Root & shoot growth analysis after seed soak, corn. In kind it is in vivo. As to conditions: seed soak 0.2 μg/ml, 12-14 days. The procedure: as §4
The length of the shoot was measured as the distance from the soil to the lightly stretched tip of the highest leaf for each plant. […]
Root growth was estimated by counting the number of times that a primary root crosses the quadrant marks on the bottom of the cup. These were often observed along the bottom circumference of the cup, although some were visible along the side of the container and were counted as if crossing a vertical extension of the quadrant line. […]

Setting [4] is: foliar spray 2.0 ug/ml, 14 days.

In the case of “QAGPQSANKTGNVDDANNQDPEQALEQLLEDLV (P14-22E,26E)”, in test [1], the “Peroxide Response, Tobacco” value is reported as “Weak+”. In addition, in test [2] (spray 20 ug/ml), the “Effectiveness Covered (%) (decline in TMV lesions vs UTC, systemic response)” value (shortened to “Effectiveness Covered (%)”) was found to be 62% and the “Effectiveness Uncovered (%) (decline in TMV lesions vs UTC, local response)” value (“Effectiveness Uncovered (%)” for short) is reported as 74* %.

For the sequence SQGISEKQLDQLFSQLIQALLQP (P4-14S-13F), the “Peroxide Response, Tobacco” value in test [1] is given as “Weak+”.

Consider “QAGPQSANKTGNVDDANNQDPLQALEQLLEDLV (P14-22L,26E)”, for which the “Peroxide Response, Tobacco” value in test [1] is listed as “Weak+”. Besides, in test [2] (spray 20 ug/ml), the “Effectiveness Covered (%)” value was 91* % and the “Effectiveness Uncovered (%)” value is reported as 70* %.

Turning to SQGISEKQDDQLLSQLIQALLQP (P4-14S-9D), the “Peroxide Response, Soy” value in test [3] is given as “Weak+”. In test [2] (spray 10 ug/ml), the “Effectiveness Covered (%)” value is 52% and the “Effectiveness Uncovered (%)” value is on record as 89%.

For the sequence “QAGPQSANKTGNVDDANNQDPLQALLQLLEDLV (P14-22L,26L)”, in test [3], the “Peroxide Response, Soy” value is recorded as “Weak+”. In test [2] (spray 20 ug/ml), the “Effectiveness Covered (%)” value was 67* % and the “Effectiveness Uncovered (%)” value is 65* %.

SQGISEKQLDQLDSQLIQALLQP (P4-14S-13D): the “Peroxide Response, Tobacco” value in test [1] is “Weak+”.

Consider QAGPQSANKTGNVDDANNQDPMQALMQLLEDLV (P14), for which the “Peroxide Response, Tobacco” value in test [1] was “Weak+”. Also, the “root growth (text summary of Table 20)” value with soybean seeds (seed soak) is on record as “Increased root growth”. Besides, in the test on soybean seeds (seed soak 5.0 μg/ml), the “Root (root growth index, percentage increase over untreated control)” value stood at 24.9%* and the “Shoot (shoot length, percentage increase over untreated control)” value amounted to 4.4%. Also, in the test on Soy plants, the “growth, dry biomass and fresh mass (text summary of Table 21)” value was “increases in growth and dry biomass”. In the test on Soy plants (foliar spray 2.0 ug/ml), the “Dry biomass increase (%)” value was 1.6% and the “Growth increase (%)” value turned out to be 25.8%. In the test with Soy plants (foliar spray 5.0 ug/ml), the “Dry biomass increase (%)” value came to 3% and the “Growth increase (%)” value is 31.4%.

SQGISEKQSDQLLSQLIQALLQP (P4-14S-9S): the “Peroxide Response, Tobacco” value in test [1] was “Weak+”.

With NQGISEKQLDQLLTQLI (P1-29), in the test on corn plants (foliar spray), the “growth benefit in corn” value is listed as “modest growth benefit”. Besides, in the test on corn plants (setting [4]), the “Dry biomass increase (%)” value turned out to be 5.7%, the “Fresh mass increase (%)” value was determined as 5.1% and the “Growth increase (%)” value worked out at 7.8%. Moreover, in test [2] (spray 10 ug/ml), the “Effectiveness Covered (%)” value came out at 18% and the “Effectiveness Uncovered (%)” value was 44%.

Regarding “QAGPQSANKTGNVDDANNQDPAQALEQLLEDLV (P14-22A,26E)”, the “Peroxide Response, Soy” value in test [3] is listed as “Weak+”. In test [2] (spray 20 ug/ml), the “Effectiveness Covered (%)” value is 85* % and the “Effectiveness Uncovered (%)” value is reported as 91* %.

“QAGPQSANKTGNVDDANNQDPLQALLQAAEDLV (P14-22L,28-29A)”: in test [3], the “Peroxide Response, Soy” value is “Weak+”. In test [2] (spray 10 ug/ml), the “Effectiveness Covered (%)” value is given as 84* % and the “Effectiveness Uncovered (%)” value is given as 83* %.

For the sequence SQGISEKQLDQLQSQLIQALLQP (P4-14S-13Q), the “Peroxide Response, Tobacco” value in test [1] is “Weak+”. Moreover, in test [2] (spray 10 ug/ml), the “Effectiveness Covered (%)” value is given as 61* % and the “Effectiveness Uncovered (%)” value is recorded as 40%.

On to SEEELQQLLKLFSEIL (P3-5), for which, in test [1], the “Peroxide Response, Tobacco” value is on record as “Weak +”. For the same sequence, in test [2] (spray 10 ug/ml), the “Effectiveness Covered (%)” value is 94* % and the “Effectiveness Uncovered (%)” value was found to be 66%.

Take SQGISEKQADQLLSQLIQALLQP (P4-14S-9A): in the test with Corn seeds, the “Root (root growth index, percentage increase over untreated control)” value is 4.8% and the “Shoot (shoot length, percentage increase over untreated control)” value is 3.9%*. Besides, the “shoot growth (Table 20)” value in the test on soybean seeds (seed soak, p14a soy at 0.2 μg/ml) is “increased shoot growth”. For the same sequence, in the test with soybean seeds (seed soak 2.0 μg/ml), the “Root (root growth index, percentage increase over untreated control)” value is given as 4.3% and the “Shoot (shoot length, percentage increase over untreated control)” value was found to be 5.0%. In the test on soybean seeds (seed soak 5.0 μg/ml), the “Root (root growth index, percentage increase over untreated control)” value is given as 2.5% and the “Shoot (shoot length, percentage increase over untreated control)” value amounted to 6.5%*. Also, the “growth, dry biomass and fresh mass (text summary of Table 21)” value in the test on Soy plants was “increases in growth and dry biomass”. Also, in the test on Soy plants (foliar spray 2.0 ug/ml), the “Dry biomass increase (%)” value is 10.8% and the “Growth increase (%)” value amounted to 11.9%. In addition, the “TMV response / effectiveness against TMV infection (summary of Table 22)” value in test [2] (foliar spray) was “produced the best results”. Besides, in test [2] (spray 5.0 ug/ml), the “Effectiveness Covered (%)” value was 86* % and the “Effectiveness Uncovered (%)” value is on record as 84* %.
